# From the kinase profiling compilation of Christmann-Franck et al. (2016)
# Assays:
# Assay in all cases: radiometric filter-binding kinase assay, Kinase HotSpot
# Details in all cases: compound 0.5 µM; ATP 10 µM
# [1] = target: NEK6 (human) (UniProt Q9HC98)
# [2] = target: MET (human) (UniProt P08581)
# [3] = target: NEK1 (human) (UniProt Q96PY6)
# [4] = target: OXSR1 (human) (UniProt O95747)
# [5] = target: ADRBK2 (human) (UniProt P35626)
# [6] = target: MAP4K5 (human) (UniProt Q9Y4K4)
# [7] = target: PAK2 (human) (UniProt Q13177)
# [8] = target: FGFR1 (human) (UniProt P11362)
# [9] = target: RPS6KA6 KD1 KD2 (human) (UniProt Q9UK32)
# [10] = target: NEK7 (human) (UniProt Q8TDX7)
# Sequence of NEK7 (human) (Q8TDX7 whole entry, looked up): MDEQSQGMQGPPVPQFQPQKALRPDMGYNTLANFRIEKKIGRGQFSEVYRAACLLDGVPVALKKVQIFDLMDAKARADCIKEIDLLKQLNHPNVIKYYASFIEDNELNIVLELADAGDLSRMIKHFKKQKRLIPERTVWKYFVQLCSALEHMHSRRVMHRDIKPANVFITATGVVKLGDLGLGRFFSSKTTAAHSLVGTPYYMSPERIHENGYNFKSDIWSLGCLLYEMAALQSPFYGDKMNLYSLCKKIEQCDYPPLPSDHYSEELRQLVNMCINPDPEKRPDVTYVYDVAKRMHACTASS
# [11] = target: MUSK (human) (UniProt O15146)
# [12] = target: CDC42BPB (human) (UniProt Q9Y5S2)
# [13] = target: CAMK2A (human) (UniProt Q9UQM7)
# [14] = target: SLK (human) (UniProt Q9H2G2)
# [15] = target: EPHA2 (human) (UniProt P29317)
# [16] = target: SRPK3 (human) (UniProt Q9UPE1)
# [17] = target: PRKG2 (human) (UniProt Q13237)
# [18] = target: MST4 (human) (UniProt Q9P289)
# Sequence of MST4 (human) (Q9P289 whole entry, looked up): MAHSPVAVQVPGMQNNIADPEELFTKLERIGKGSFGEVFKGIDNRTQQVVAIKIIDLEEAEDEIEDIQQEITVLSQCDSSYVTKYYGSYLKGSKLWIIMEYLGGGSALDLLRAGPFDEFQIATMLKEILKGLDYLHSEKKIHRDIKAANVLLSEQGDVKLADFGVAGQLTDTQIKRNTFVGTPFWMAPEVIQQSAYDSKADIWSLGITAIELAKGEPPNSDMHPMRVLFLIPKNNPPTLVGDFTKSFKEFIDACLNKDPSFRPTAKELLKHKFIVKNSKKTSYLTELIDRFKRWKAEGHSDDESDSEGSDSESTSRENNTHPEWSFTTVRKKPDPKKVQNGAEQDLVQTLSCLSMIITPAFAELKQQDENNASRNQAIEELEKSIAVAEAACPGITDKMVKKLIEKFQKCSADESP
# [19] = target: FYN (human) (UniProt P06241)
# Sequence of FYN (human) (P06241 whole entry, looked up): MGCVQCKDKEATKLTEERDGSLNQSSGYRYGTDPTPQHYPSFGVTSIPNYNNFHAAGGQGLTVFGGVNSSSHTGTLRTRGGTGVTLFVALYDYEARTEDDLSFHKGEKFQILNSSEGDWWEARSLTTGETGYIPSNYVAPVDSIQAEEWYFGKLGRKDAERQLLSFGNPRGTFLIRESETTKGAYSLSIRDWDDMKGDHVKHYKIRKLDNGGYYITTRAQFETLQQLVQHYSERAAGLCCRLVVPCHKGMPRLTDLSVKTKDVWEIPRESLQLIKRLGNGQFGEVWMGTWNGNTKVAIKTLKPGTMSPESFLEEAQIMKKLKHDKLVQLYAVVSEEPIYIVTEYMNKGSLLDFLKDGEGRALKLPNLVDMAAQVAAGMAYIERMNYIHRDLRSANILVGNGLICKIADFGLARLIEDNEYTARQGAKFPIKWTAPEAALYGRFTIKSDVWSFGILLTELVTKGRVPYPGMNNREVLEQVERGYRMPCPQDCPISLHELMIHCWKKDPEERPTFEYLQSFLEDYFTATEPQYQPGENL
# [20] = target: EPHA8 (human) (UniProt P29322)
# [21] = target: PRKX (human) (UniProt P51817)
# Sequence of PRKX (human) (P51817 whole entry, looked up): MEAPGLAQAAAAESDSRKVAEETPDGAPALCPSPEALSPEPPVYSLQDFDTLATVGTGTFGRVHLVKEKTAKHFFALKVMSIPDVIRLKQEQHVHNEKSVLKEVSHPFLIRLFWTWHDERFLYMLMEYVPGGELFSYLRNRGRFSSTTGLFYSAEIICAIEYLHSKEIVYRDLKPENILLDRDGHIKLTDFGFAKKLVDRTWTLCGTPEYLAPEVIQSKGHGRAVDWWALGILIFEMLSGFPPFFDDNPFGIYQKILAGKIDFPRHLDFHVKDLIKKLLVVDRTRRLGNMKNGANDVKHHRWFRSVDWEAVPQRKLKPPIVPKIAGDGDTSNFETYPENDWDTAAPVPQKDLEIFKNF
# [22] = target: PIM1 (human) (UniProt P11309)
# [23] = target: RIPK2 (human) (UniProt O43353)
# Sequence of RIPK2 (human) (O43353 whole entry, looked up): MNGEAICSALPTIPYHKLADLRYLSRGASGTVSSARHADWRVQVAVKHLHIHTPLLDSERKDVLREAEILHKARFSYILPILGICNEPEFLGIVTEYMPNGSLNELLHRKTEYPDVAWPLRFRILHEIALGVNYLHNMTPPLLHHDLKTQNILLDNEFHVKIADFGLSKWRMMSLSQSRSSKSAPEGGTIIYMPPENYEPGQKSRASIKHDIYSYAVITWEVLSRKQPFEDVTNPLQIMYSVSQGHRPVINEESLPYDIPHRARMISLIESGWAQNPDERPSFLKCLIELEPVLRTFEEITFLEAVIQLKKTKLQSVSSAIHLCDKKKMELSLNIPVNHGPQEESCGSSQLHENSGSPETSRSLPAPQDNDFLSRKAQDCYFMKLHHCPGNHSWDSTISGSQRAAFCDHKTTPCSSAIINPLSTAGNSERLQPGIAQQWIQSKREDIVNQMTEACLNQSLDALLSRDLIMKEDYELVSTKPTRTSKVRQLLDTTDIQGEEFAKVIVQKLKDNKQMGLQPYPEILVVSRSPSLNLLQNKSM
# [24] = target: TTK (human) (UniProt P33981)
# [25] = target: CAMK4 (human) (UniProt Q16566)
# [26] = target: STK24 (human) (UniProt Q9Y6E0)
# Sequence of STK24 (human) (Q9Y6E0 whole entry, looked up): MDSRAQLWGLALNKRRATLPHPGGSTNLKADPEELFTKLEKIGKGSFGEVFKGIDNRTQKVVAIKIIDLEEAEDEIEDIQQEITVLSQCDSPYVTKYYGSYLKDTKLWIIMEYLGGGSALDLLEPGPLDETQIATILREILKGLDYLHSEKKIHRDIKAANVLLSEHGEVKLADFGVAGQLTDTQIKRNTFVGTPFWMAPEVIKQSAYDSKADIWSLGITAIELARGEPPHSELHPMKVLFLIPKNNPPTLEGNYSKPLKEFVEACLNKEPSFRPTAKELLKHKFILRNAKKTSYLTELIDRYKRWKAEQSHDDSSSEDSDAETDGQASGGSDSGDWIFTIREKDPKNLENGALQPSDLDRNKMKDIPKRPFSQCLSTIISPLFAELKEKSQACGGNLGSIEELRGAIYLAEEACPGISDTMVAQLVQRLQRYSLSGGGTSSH
# [27] = target: HCK (human) (UniProt P08631)
# [28] = target: DYRK3 (human) (UniProt O43781)
# [29] = target: EPHA3 (human) (UniProt P29320)
# Sequence of EPHA3 (human) (P29320 whole entry, looked up): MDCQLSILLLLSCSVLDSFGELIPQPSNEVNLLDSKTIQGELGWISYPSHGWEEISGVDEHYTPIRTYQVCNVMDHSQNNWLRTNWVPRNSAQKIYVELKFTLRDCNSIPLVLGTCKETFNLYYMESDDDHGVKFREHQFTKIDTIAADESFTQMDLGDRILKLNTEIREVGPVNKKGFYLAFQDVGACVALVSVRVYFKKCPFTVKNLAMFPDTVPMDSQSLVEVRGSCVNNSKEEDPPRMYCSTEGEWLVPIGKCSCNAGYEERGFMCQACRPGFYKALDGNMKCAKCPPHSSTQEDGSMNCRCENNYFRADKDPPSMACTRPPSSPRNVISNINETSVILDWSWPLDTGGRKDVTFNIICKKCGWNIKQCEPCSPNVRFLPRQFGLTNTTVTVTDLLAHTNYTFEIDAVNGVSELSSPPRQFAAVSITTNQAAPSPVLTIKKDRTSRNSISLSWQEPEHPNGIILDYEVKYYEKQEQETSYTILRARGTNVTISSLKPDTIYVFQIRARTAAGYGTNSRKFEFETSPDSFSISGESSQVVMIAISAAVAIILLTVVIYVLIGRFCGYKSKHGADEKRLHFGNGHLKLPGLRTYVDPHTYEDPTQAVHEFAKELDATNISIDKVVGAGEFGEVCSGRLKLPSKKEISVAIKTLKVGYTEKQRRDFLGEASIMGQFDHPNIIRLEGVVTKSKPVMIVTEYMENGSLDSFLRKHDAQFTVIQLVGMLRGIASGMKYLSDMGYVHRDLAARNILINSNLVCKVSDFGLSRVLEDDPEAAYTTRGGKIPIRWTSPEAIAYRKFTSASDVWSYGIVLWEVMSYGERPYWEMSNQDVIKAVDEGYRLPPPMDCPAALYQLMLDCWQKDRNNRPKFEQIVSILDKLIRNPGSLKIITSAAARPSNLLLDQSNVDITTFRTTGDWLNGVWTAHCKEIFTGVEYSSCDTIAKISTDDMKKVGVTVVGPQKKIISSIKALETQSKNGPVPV
# [30] = target: TGFBR2 (human) (UniProt P37173)
# [31] = target: MARK1 (human) (UniProt Q9P0L2)
# [32] = target: MATK (human) (UniProt P42679)
# [33] = target: CAMK2G (human) (UniProt Q13555)
# Sequence of CAMK2G (human) (Q13555 whole entry, looked up): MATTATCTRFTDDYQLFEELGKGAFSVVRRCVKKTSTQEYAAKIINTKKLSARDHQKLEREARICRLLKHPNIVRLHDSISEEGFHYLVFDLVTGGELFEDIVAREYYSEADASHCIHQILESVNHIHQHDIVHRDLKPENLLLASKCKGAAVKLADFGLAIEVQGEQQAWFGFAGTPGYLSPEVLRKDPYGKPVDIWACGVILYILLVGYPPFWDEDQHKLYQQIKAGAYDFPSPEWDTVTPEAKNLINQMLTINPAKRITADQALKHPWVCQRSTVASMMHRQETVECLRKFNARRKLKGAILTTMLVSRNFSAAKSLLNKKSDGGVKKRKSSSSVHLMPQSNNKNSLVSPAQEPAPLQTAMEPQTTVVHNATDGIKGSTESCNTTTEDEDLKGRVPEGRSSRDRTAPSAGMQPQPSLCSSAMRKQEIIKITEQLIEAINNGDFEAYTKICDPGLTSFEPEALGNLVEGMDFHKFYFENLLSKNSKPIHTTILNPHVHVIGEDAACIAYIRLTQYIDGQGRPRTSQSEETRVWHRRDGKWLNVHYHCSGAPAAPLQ
# [34] = target: MAPK9 (human) (UniProt P45984)
# Sequence of MAPK9 (human) (P45984 whole entry, looked up): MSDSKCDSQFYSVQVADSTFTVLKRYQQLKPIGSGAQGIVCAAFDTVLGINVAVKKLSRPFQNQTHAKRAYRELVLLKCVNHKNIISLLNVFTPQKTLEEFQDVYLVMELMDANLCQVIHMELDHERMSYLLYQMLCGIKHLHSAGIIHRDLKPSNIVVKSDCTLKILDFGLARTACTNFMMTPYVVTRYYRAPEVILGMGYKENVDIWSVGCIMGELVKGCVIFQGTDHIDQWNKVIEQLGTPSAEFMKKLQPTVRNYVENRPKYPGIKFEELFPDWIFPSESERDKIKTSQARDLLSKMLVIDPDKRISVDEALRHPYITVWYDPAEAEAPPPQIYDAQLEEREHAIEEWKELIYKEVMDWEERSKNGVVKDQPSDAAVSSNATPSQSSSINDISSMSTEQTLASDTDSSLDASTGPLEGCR
# [35] = target: IKBKE (human) (UniProt Q14164)
# [36] = target: NUAK2 (human) (UniProt Q9H093)
# [37] = target: PTK6 (human) (UniProt Q13882)
# [38] = target: PRKCB1 (human) (UniProt P05771)
# [39] = target: INSR (human) (UniProt P06213)
# [40] = target: PTK2 (human) (UniProt Q05397)
# [41] = target: CSNK1G2 (human) (UniProt P78368)
# Sequence of NEK6 (human) (Q9HC98 whole entry, looked up): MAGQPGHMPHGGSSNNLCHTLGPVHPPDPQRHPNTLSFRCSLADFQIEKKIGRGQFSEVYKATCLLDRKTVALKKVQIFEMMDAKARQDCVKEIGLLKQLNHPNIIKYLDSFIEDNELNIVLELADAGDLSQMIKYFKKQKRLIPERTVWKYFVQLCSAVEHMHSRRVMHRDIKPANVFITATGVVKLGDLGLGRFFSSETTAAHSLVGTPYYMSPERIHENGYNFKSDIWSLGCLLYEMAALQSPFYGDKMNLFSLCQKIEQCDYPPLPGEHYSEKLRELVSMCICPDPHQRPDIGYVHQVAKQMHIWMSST
structure (smiles),measurement,setting,value
CCN(CC)CCNC(=O)c1c(C)[nH]c(/C=C2\C(=O)Nc3ccc(F)cc32)c1C,residual activity,[1],89%
same,residual activity,[2],91%
same,residual activity,[3],72.6%
same,residual activity,[4],105%
same,residual activity,[5],94.8%
same,residual activity,[6],4.06%
same,residual activity,[7],98.1%
same,residual activity,[8],66.1%
same,residual activity,[9],17.5%
same,residual activity,[10],93.5%
same,residual activity,[11],51.3%
same,residual activity,[12],101%
same,residual activity,[13],14.5%
same,residual activity,[14],63.8%
same,residual activity,[15],83.6%
same,residual activity,[16],102%
same,residual activity,[17],96.1%
same,residual activity,[18],110%
same,residual activity,[19],71.3%
same,residual activity,[20],92.1%
same,residual activity,[21],105%
same,residual activity,[22],94.4%
same,residual activity,[23],104%
same,residual activity,[24],68%
same,residual activity,[25],88.6%
same,residual activity,[26],39.7%
same,residual activity,[27],40%
same,residual activity,[28],58.2%
same,residual activity,[29],84%
same,residual activity,[30],92.5%
same,residual activity,[31],40.9%
same,residual activity,[32],88.8%
same,residual activity,[33],25.1%
same,residual activity,[34],96.7%
same,residual activity,[35],45.6%
same,residual activity,[36],65%
same,residual activity,[37],84.5%
same,residual activity,[38],90.2%
COc1ccc(COc2ccc(Cc3cnc(N)nc3N)cc2OC)cc1,residual activity,[1],99.4%
same,residual activity,[2],76.1%
same,residual activity,[3],95.6%
same,residual activity,[4],103%
same,residual activity,[5],103%
same,residual activity,[6],97.4%
same,residual activity,[7],95.3%
same,residual activity,[8],108%
same,residual activity,[9],101%
same,residual activity,[10],100%
same,residual activity,[11],102%
same,residual activity,[12],96.9%
same,residual activity,[13],105%
same,residual activity,[14],97.7%
same,residual activity,[15],107%
same,residual activity,[16],102%
same,residual activity,[17],104%
same,residual activity,[18],95.5%
same,residual activity,[19],102%
same,residual activity,[21],105%
same,residual activity,[22],104%
same,residual activity,[23],81.9%
same,residual activity,[24],105%
same,residual activity,[25],94.7%
same,residual activity,[26],93.5%
same,residual activity,[28],108%
same,residual activity,[29],109%
same,residual activity,[39],97%
same,residual activity,[30],127%
same,residual activity,[31],103%
same,residual activity,[32],94.8%
same,residual activity,[33],94.4%
same,residual activity,[34],106%
same,residual activity,[35],96.7%
same,residual activity,[36],98.1%
same,residual activity,[40],95.5%
same,residual activity,[37],96.1%
same,residual activity,[38],102%
same,residual activity,[41],101%
CNC(=O)c1cc(Oc2ccc(NC(=O)Nc3ccc(Cl)c(C(F)(F)F)c3)cc2)ccn1,residual activity,[1],105%
same,residual activity,[2],105%
same,residual activity,[3],88.8%
same,residual activity,[4],103%
same,residual activity,[5],98.4%
same,residual activity,[6],57%
same,residual activity,[7],101%
same,residual activity,[8],90.9%
same,residual activity,[9],97.3%
same,residual activity,[10],98.2%
same,residual activity,[11],101%
same,residual activity,[12],102%
same,residual activity,[13],95.3%
same,residual activity,[14],96.8%
same,residual activity,[15],83.8%
same,residual activity,[16],88.4%
same,residual activity,[17],90.9%
same,residual activity,[18],101%
same,residual activity,[19],91.6%
same,residual activity,[20],94.5%
same,residual activity,[21],97.7%
same,residual activity,[22],97.1%
same,residual activity,[23],86.2%
same,residual activity,[24],104%
same,residual activity,[25],107%
same,residual activity,[26],110%
same,residual activity,[27],90.3%
same,residual activity,[28],92.7%
same,residual activity,[29],95.5%
same,residual activity,[39],106%
same,residual activity,[30],99.9%
same,residual activity,[31],80.3%
same,residual activity,[32],114%
same,residual activity,[33],108%
same,residual activity,[34],94.8%
same,residual activity,[35],89.8%
same,residual activity,[36],101%
same,residual activity,[40],102%
same,residual activity,[37],96.9%
same,residual activity,[38],95.1%
same,residual activity,[41],88.9%
